Reference: US12016864B2, “LOX enzyme inhibiting methods and compositions” (ANOVIA BIOSCIENCES, INC., priority 2021, dated 2024)
pIC50: −log10 of the molar value.

Key:
Format in all cases: biochemical
[1] = target: T1, Bovine lysyl oxidase (LOX) (Bos taurus, UniProt P33072); assay: LOX inhibition assay, fluorometric (cadaverine / HRP / Amplex Red); details: LOX extracted from bovine tendon, 30 min preincubation at 37° C., 5 mM cadaverine
T1 construct: from tissue; host or cells: adult bovine tendon
T1 sequence (P33072 170-418): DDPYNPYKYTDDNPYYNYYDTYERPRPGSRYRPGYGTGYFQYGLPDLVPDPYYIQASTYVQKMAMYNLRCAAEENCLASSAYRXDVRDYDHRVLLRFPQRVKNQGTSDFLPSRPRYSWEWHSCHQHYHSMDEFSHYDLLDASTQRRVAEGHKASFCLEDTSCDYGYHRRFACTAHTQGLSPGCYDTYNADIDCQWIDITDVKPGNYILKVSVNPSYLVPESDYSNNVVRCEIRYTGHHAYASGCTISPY
Procedure: The ability of compounds to inhibit prototypic LOX was determined using a fluorometric assay. This assay measures the activity of lysyl oxidases by coupling the reaction with horseradish peroxidase-catalyzed […]. The activity assay protocol uses cadaverine as substrate that releases hydrogen peroxide upon transformation by prototypic LOX enzyme present in the sample. Hydrogen peroxide was in turn detected using a red fluorescence substrate for HRP-coupled reactions (Amplex Red Enzyme Assays, Thermo Scientific Fisher). This lead to an increase in fluorescence that can be easily detected at Ex/Em=540/590 nm in a fluorescence microplate
Bovine lysyl oxidase (LOX) was extracted by adapting the methodology from [Kagan et al. 1979 and Borel et al. 2001.] from bovine tendon: Frozen adult bovine tendon was placed in room temperature water to defrost, and then membranes were removed and the remaining tissue cut into 1 cm pieces. The material was first passed through a course mesh meat grinder, and this mince was passed through a fine mesh grinder. The mince was homogenized in 10 v/w of buffer (16 mM sodium phosphate buffer pH 7.8, 400 mM NaCl) using a Waring blender. The homogenate was centrifuged at 15,000×g for 15 min at 4° C. After centrifugation, the supernatant was discarded and the pellets resuspended in 10 volumes of the same buffer. The mixture was blended again and centrifuged with the same settings. This time the pellets were blended in 3 volumes of extraction buffer (16 mM sodium phosphate buffer pH 7.8) and left to incubate at 4° C. for 2 h. After this time, the slurry was centrifuged with the same settings as described above. The supernatant was used in an ultrafiltration step to remove large proteins by size exclusion through a 30 kDalton filter (EMD Millipore). The filtrate was mixed with DEAE Sephadex (GE Healthcare), or passed over a MonoQ FPLC column. After two washes, one in 16 mM sodium phosphate buffer pH 7.8, 380 mM NaCl, and another in 16 mM sodium phosphate buffer pH 7.8, the proteins were eluted with 16 mM sodium phosphate pH 7.8, 10 μM CuSO4, and 4 M urea. Fractions containing Lox activity were collected and stored frozen at −70° C.
Final concentration in the LOX assay is shown in Table 6 below and performed in a total volume of […].
7 μl of freshly prepared reaction buffer were delivered to reaction wells. Compounds were resuspended in 100% DMSO at 10 mM and delivered into buffer using acoustic technology (Echo550; nanoliter range). A 2.85× solution of LOX protein in reaction buffer was prepared (“LOX solution”) and 7 μl of LOX solution was added into the reaction wells. Buffer only was added to column 1 for no protein control. Reactions were incubated for 30 minutes at 37° C. A 3.33× mixture of cadaverine, Amplex Red, and HRP (“Substrate/Detection Mix) was prepared and subsequently 6 μL of the mixture was added to each reaction well. Progress of reactions was monitored for 120 minutes at 37° C. using Clariostar plate reader (ex530-12, ems 600-40). For all activity assays, pan-LOX inhibitor CCT365623 (Tang et al, 2017) and LOXL2/LOXL3 inhibitor PAT-1251 (PharmaKea) were included as standards.
The slope of the linear portion of the progress curve was calculated using Clariostar software. Typical analysis interval was between 20-50 min, but varied between experiments. The background subtracted signals (No protein wells were considered as background) were converted to % activity relative to DMSO controls. Data was analyzed using GraphPad Prism 4 with “sigmoidal dose-response (variable slope)”; 4 parameters with Hill Slope. Constraints: Bottom=Constant equal to 0. Top=Must be less than 120.

[2] = target: T2, Recombinant human LOXL2 (lysyl oxidase like 2) (Homo sapiens, UniProt Q9Y4K0); assay: LOXL2 inhibition assay, fluorometric (cadaverine / HRP / Amplex Red); details: recombinant human LOXL2 130 nM; 30 min preincubation at 37° C.; 2.5 mM cadaverine; read-out: Activity Range LOXL2
T2 construct: purchased R&D systems
T2 sequence (Q9Y4K0 26-774): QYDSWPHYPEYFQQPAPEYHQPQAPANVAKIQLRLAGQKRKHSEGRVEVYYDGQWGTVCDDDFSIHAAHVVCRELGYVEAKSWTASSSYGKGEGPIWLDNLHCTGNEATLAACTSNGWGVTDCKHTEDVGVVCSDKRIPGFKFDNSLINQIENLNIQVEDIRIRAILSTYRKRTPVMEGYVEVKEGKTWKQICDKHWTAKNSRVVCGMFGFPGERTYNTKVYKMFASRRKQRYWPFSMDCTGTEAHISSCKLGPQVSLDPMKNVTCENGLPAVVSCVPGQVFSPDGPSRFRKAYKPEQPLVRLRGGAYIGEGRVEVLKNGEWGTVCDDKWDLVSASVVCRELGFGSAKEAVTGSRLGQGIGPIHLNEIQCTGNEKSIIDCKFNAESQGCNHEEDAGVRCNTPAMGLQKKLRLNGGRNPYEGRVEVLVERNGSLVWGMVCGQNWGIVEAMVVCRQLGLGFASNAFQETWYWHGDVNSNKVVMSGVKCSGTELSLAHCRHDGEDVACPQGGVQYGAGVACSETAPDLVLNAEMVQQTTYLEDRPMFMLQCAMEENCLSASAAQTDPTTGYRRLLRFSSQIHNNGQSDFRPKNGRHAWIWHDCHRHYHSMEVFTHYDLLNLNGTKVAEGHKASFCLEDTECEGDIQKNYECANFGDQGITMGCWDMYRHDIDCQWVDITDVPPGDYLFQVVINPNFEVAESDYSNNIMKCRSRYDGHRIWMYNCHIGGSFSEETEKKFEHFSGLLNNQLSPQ
Procedure: (§1) The ability of compounds to inhibit one or more of the lysyl oxidases LOXL2 and/or LOXL3 was determined using a fluorometric assay. This assay measures the activity of lysyl oxidases by coupling the reaction with horseradish peroxidase-catalyzed […]. The activity assay protocol uses cadaverine as substrate that releases hydrogen peroxide upon transformation by the specific LOX family enzyme present in the sample. Hydrogen peroxide is in turn detected using a red fluorescence substrate for HRP-coupled reactions (Amplex Red Enzyme Assays, Thermo Scientific Fisher). This leads to increase in fluorescence that can be easily detected at Ex/Em=540/590 nm in a fluorescence microplate reader.
(§2) Recombinant human LOXL2 (lysyl oxidase like 2) and recombinant human LOXL3 (lysyl oxidase like 3) were purchased from R&D systems and assays were performed in 1.2 M urea, 50 mM sodium borate buffer pH 8.0, and 10 mM CaCl.
(§3) 5 μl of freshly prepared reaction buffer were delivered to reaction wells. Compounds were resuspended in 100% DMSO at 10 mM and delivered into buffer using acoustic technology (Echo550; nanoliter range). A 3× solution of LOXL2 or LOXL3 in reaction buffer was prepared (“enzyme solution”) and 5 μL of enzyme solution was added into the reaction wells. Buffer only was added to column 1 for no protein control. Reactions were incubated for 30 minutes at 37° C. A 3× mixture of cadaverine, Amplex Red, and HRP (“Substrate/Detection Mix) was prepared and subsequently 5 μL of the mixture added to each reaction well. Progress of reactions was monitored for 60 minutes at 37° C. using Clariostar plate reader (ex 530-12, ems 600-40). For all activity assays, pan-LOX inhibitor CCT365623 (Tang et al, 2017) and LOXL2/LOXL3 inhibitor PAT-1251 (PharmaKea) were included as standards.
(§4) For the data analysis, the slope of the linear portion of the progress curve was calculated using Clariostar software. Typical analysis interval was between 8-30 min, but varied between experiments. The background-subtracted signals (No protein wells are considered as background) were converted to % activity relative to DMSO controls. Data was analyzed using GraphPad Prism 4 with “sigmoidal dose-response (variable slope)”; 4 parameters with Hill Slope. Constraints: Bottom=Constant equal to 0. Top=Must be less than 120.

[3] = target: T3, Recombinant human LOXL3 (lysyl oxidase like 3) (Homo sapiens, UniProt P58215); assay: LOXL3 inhibition assay, fluorometric (cadaverine / HRP / Amplex Red); details: recombinant human LOXL3 150 nM; 30 min preincubation at 37° C.; 1 mM cadaverine; read-out: Activity Range LOXL3
T3 construct: purchased R&D systems
T3 sequence (P58215 26-753): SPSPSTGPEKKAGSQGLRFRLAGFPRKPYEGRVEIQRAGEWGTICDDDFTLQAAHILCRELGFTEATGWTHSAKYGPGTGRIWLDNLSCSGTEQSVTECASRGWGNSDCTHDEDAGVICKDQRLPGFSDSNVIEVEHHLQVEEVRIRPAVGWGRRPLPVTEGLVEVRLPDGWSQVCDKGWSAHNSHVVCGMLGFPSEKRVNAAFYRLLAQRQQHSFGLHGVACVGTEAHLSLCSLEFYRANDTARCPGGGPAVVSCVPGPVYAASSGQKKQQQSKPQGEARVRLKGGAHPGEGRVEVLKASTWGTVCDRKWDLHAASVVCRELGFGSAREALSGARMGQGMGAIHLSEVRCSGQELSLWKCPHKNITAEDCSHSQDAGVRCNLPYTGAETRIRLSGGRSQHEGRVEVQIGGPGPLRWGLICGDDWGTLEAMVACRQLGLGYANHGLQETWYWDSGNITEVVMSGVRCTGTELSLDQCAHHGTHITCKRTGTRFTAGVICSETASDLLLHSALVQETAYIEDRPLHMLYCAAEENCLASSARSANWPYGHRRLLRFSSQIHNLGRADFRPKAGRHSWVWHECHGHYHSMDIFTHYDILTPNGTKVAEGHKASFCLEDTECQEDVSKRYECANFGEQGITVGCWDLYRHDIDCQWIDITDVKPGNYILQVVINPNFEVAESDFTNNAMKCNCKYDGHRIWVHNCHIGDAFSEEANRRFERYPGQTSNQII
Procedure: as §1, §2, §3, §4

| Activity Range LOX [1] | pIC50 [2] | pIC50 ([1]; read-out: Activity Range LOX) | pIC50 [3] | SMILES |
| --- | --- | --- | --- | --- |
|  | ≥ 6.30 |  | 6.00 to 6.30 | NCc1ccnc(OC[C@@H]2C[C@H](C3CCCCC3)CN(S(=O)(=O)N3CCS(=O)(=O)CC3)C2)c1 (racemic) [Example 235, cis-4-((3-(((4-(Aminomethyl)pyridin-2-yl)oxy)methyl)-5-cyclohexylpiperidin-1-yl)sulfonyl)thiomorpholine 1,1-dioxide 2,2,2-trifluoroacetate] |
|  | ≥ 6.30 |  | ≥ 6.30 | NCc1ccnc(OC[C@@H]2C[C@H](C3CCCCC3)CN2S(=O)(=O)N2CCOCC2)c1 (relative stereo) [Example 239, cis-(2-((4-Cyclohexyl-1-(morpholinosulfonyl)pyrrolidin-2-yl)methoxy)pyridin-4-yl)methanamine 2,2,2-trifluoroacetate] |
|  | ≥ 6.30 |  | ≥ 6.30 | NCc1ccnc(OC[C@@H]2C[C@@H](C3CCCCC3)CN2S(=O)(=O)N2CCOCC2)c1 [Example 239T, trans-(2-((4-Cyclohexyl-1-(morpholinosulfonyl)pyrrolidin-2-yl)methoxy)pyridin-4-yl)methanamine 2,2,2-trifluoroacetate] |

The remaining lines, values behind:

| SMILES | Activity Range LOX [1] | pIC50 [2] | pIC50 ([1]; read-out: Activity Range LOX) | pIC50 [3] |
| --- | --- | --- | --- | --- |
| NCc1ccnc(OC[C@@H]2C[C@H](c3ccc(F)cc3)CN2S(=O)(=O)N2CCS(=O)(=O)CC2)c1.O=C(O)C(F)(F)F (racemic) [Example 214, cis-((2-(((4-(Aminomethyl)pyridin-2-yl)oxy)methyl)-4-(4-fluorophenyl)pyrrolidin-1-yl)sulfonyl)thiomorpholine 1,1-dioxide 2,2,2-trifluoroacetate] | Inactive | ≥ 6.30 |  |  |
| NCc1cccc(OC[C@@H]2C[C@H](c3ccc(F)cc3)CN2S(=O)(=O)N2CCOCC2)c1.O=C(O)C(F)(F)F (racemic) [Example 216, cis-(3-((4-(4-Fluorophenyl)-1-(morpholinosulfonyl)pyrrolidin-2-yl)methoxy)phenyl)methanamine 2,2,2-trifluoroacetate] | Inactive | 6.00 to 6.30 |  |  |
| NCc1cccc(OC[C@@H]2C[C@H](c3ccc(F)cc3)CN2S(=O)(=O)N2CCS(=O)(=O)CC2)c1 (racemic) [Example 218, cis-4-((2-((3-(Aminomethyl)phenoxy)methyl)-4-(4-fluorophenyl)pyrrolidin-1-yl)sulfonyl)thiomorpholine 1,1-dioxide] |  | ≥ 6.30 | 4.52 to 6.00 |  |
